Values joined by “and” are separate entries in the source; they are usually repeats but may differ in a detail not shown here. Equal entries are not always repeated.

Data set [1] deals with ID1 mRNA. The data set can be described thus: qRT-PCR for ID1 in HCT116 cells. To be noted: 40 μM, 24 hours. It is filed as cell-based. On the procedure:
qRT-PCR. RNA was extracted using the RNeasy kit (Qiagen, Valencia, Calif., USA) and cDNA was generated from 1 μg of RNA using SuperScript IV First-Strand Synthesis System (Invitrogen, Grand Island, N.Y., USA). Quantitative PCR was performed using SYBR Green QuantiTect Primer Assay (Qiagen) according to manufacturer's instructions in a 7900HT Fast-Real Time PCR System Instrument (Applied Biosystems, Grand Island, N.Y., USA). Primer pairs for the individual genes were obtained from the bioinformatically validated QuantiTect Library and are as follows: ID1 (QT00230650), ID3 (QT01673336), and GAPDH (QT01192646). The fold changes in gene expression were calculated using the delta-delta CT method.

Data set [2] in a line: 14-day toxicity study, i.p. It is filed as in vivo. To be noted: 60 mg/kg bid i.p., 14 days. On the procedure:
Toxicity analyses. To assess for toxicity, female athymic nude mice (Envigo), age 6-8 weeks, were dosed i.p. with either a control vehicle (70% DMSO in water) or AGX51 at 60 mg/kg twice daily for 14 consecutive days. Mice were sacrificed 24 hours after the last test administration. Gross and complete necropsy, along with clinical pathology analysis was conducted on all mice. Clinical Chemistry parameters measured were: BUN, Creatine, ALP, ALT, AST, GGT, Bilirubin, Total Protein, Albumin, Globulin, Phosphorus, Glucose, Cholesterol, Phosphorus, Calcium, Sodium, Potassium, Chloride. Hematology parameters measured were: white blood cells (lymphocytes, Monocytes, Eosinophils, Basophils, Neutrophils), red blood cells, Hemoglobin, Hematocrit, MCV, MCH, MCHC, RDW, Platelets. Organs/Tissues analyzed were: Lung, heart, thymus, kidneys, liver, spleen, gall bladder, pancreas, duodenum, jejunum, ileum, cecum, colon, bone marrow, femur, tibia, sternum, brain, eyes, ears, nasal and oral cavities, teeth, mesenteric and tracheal lymph nodes.

Data set [3] has as its target T1, ID1 (Homo sapiens, UniProt P41134).
T1 sequence (P41134 1-155): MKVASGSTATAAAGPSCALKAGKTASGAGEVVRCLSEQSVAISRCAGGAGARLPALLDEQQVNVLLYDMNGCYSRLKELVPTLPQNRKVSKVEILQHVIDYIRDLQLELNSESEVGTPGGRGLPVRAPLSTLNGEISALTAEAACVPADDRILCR
The experiment in a line: Ubiquitylation assay in HCT116 and U87 cells. It is filed as cell-based. As to conditions: 60 μM AGX51 two hours, then MG132 six hours. On the procedure:
Ubiquitylation assay. HCT116 cells were transfected with pcDNA3-ID1-Flag and pcDNA3-HA-Ubiquitin using lipofectamine 3000 (ThermoFisher). 36 hours after transfection, cells were treated with 60 μM AGX51 for two hours followed by 20 μM MG132 (EMD Millipore) for an additional six hours. After washing with ice-cold PBS twice, cells were lysed in 100 μL of TBS (50 mM Tris-HCl, pH 8.0, 150 mM NaCl) containing 2% SDS and boiled at 100° C. for 10 minutes. Lysates were diluted with 900 μL of TBS containing 1% NP40 and EDTA free protease inhibitor cocktail (Roche) and were cleared by centrifuge at 15,000 rpm for 15 minutes at 4° C. Immunoprecipitation was performed using 1 mg of cellular lysates with FLAG M2 affinity gel (Sigma, F2426). Ubiquitinylated proteins were analyzed by immunoblot using indicated antibodies.
Id proteins are degraded by the ubiquitin 26S proteasome system. Lasorella et al., Nat Rev Cancer, 14: 77-91 (2014). To determine if this degradation pathway mediated the effects of AGX51 on Id protein levels was then explored. HUVECs are difficult to transfect with expression constructs, so HCT116 cells were utilized for this assay. HCT116 cells were transfected with a construct expressing Flag-ID1 and then treated with 60 μM AGX51 for 2-24 hours (FIG. 3B). […]

Data set [4] can be described thus: Pharmacokinetics in serum after i.p. injection. It is filed as in vivo, mouse. On the procedure:
Pharmacokinetic analyses. To determine the pharmacokinetic parameters of AGX51, eight-week old male Balb/c mice (Taconic farms) were dosed once by i.p. injection with 30 mg/kg, 50 mg/kg or 100 mg/kg AGX51 prepared in 70% DMSO (n=3 mice per group). Another set of three mice was dosed with 100 mg/kg AGX51 prepared in 100% DMSO. Blood was collected at 30 minutes, 1 hour, 3 hours, 6 hours and 24 hours post AGX51 administration and plasma analyzed via LC-MS as per the protocol previously validated in the MSKCC Antitumor Assessment Core Facility. Following blood collection, the mice were sacrificed via CO2 asphyxiation and the eyes from the 30 mg/kg treatment group were collected and flash frozen for analysis. Data obtained from LC-MS was analyzed via WinNonLin software (version 8.1) for pharmacokinetic parameters.
The determination of the feasibility of administering AGX51 systemically for the treatment of ocular retinopathies was next explored. To determine the half-life of AGX51 in serum, mice were treated by intraperitoneal (i.p.) injection with a single dose of 30 mg/kg or 50 mg/kg AGX51 in 70% DMSO and blood was collected over a 24-hour period. […] Thus, 70% formulations were used in all future studies.

Data set [5] concerns the target T2, Id3 (Homo sapiens, UniProt Q02535).
T2 construct: endogenous in cells; host or cells: TFK1
The experiment in a line: Knockdown of Id3 in TFK1 cell cultures. As to conditions: TFK1, FIG. 22. The class given is cell-based. The source says:
Following the methods described herein (see, e.g., Examples 12-13), AGX-A and AGX51 were compared for their ability to mediate Id knockdown in cell cultures. FIG. 21 illustrates side-by-side comparative effects of AGX51 and AGX-A for knockdown of Id1 in TFK1 cell cultures, and FIG. 22 illustrates side-by-side comparative effects of AGX51 and AGX-A for knockdown of Id3 in TFK1 cell cultures.

T2 sequence (Q02535 whole entry): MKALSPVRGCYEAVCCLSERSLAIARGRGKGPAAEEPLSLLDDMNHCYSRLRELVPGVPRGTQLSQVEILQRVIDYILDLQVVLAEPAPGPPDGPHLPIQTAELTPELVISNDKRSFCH

On to `CCC(=O)N(CCC(c1ccc2c(c1)OCO2)c1ccccc1OC)Cc1ccccc1` (racemic) [AGX51, N-(3-(benzo[d][1,3]dioxol-5-yl)-3-(2-methoxyphenyl)propyl)-N-benzylpropionamide], for which the “ID1 mRNA levels” value in data set [1] was “increase in ID1 mRNA levels”. For the same molecule, in data set [2], the “clinical chemistry parameters and hematology” value is recorded as “within normal limits”; the “gross necropsy and histopathological evaluation of all major organs” value was “No abnormal findings”; the weight loss result is on record as “no significant weight loss”. The ID1 polyubiquitylation entry in data set [3] is on record as “further increased ID1 polyubiquitylation”. The “mean maximum serum concentration” value in data set [4] (30 mg/kg i.p., 70% DMSO) is 1.1 μg/mL and 2.7 μM. Moreover, in data set [4] (50 mg/kg i.p., 70% DMSO), the “mean maximum serum concentration” value is 1.6 μg/mL and 4 μM. In addition, the “mean maximum serum concentration vs lower doses” value in data set [4] (100 mg/kg i.p., 70% DMSO) was “not increased further”. The mean serum concentration in data set [4] (100 mg/kg i.p., 100% DMSO) was ~12 µM.

With `COc1ccccc1C(CCNCc1ccccc1)c1ccc(OC(C)C)cc1` (stereo not shown) [AGX-A, N-benzyl-3-(4-isopropoxyphenyl)-3-(2-methoxyphenyl)propan-1-anine], the “Id3 knockdown potency vs AGX51” value in data set [5] was “superior anti-Id1 and anti-Id3 potency compared to AGX51”.

For the origin of these results see patent US20220356163A1, “SMALL MOLECULE INHIBITORS OF Id PROTEINS” (MEMORIAL SLOAN KETTERING CANCER CENTER, priority 2019, published 2022).
